# From ChEMBL document CHEMBL3822436, “New polyhydroxylated flavon-3-ols and 3-hydroxy-2-styrylchromones: synthesis and ROS/RNS scavenging activities” (Eur J Med Chem, 2016)
# Key:
# Type in all cases: physicochemical
# [1] = Antioxidant activity assessed as inhibition of hydrogen peroxide-induced lucigenin oxidation at 1000 uM by chemiluminescence-based assay
# [2] = Antioxidant activity assessed as inhibition of singlet oxygen-induced oxidation of DHR to fluorescent rhodamine-123 measured after 30 mins by fluorescence microplate screening assay; conditions: for inhibition (INH): 0.5 h
# [3] = Antioxidant activity assessed as inhibition of peroxynitrite-induced oxidation of DHR to rhodamine-123 measured after 2 mins in presence of NaHCO3 by fluorimetric analysis
# [4] = Antioxidant activity assessed as inhibition of superoxide-induced NBT reduction measured during 2 mins by spectrophotometric analysis
# [5] = Antioxidant activity assessed as inhibition of HOCl-induced oxidation of non-fluorescent DHR to fluorescent rhodamine-123 by fluorescence-based assay
# [6] = Antioxidant activity assessed as inhibition of peroxynitrite-induced oxidation of DHR to rhodamine-123 measured after 2 mins by fluorimetric analysis
# [7] = Antioxidant activity assessed as inhibition of nitric oxide-induced oxidation of DAF-2 to DAF-2T measured after 30 mins by fluorimetric analysis
# [8] = Antioxidant activity assessed as inhibition of superoxide-induced NBT reduction at 100 uM measured during 2 mins by spectrophotometric analysis
# [9] = Antioxidant activity assessed as inhibition of peroxynitrite-induced oxidation of DHR to rhodamine-123 at 5 uM measured after 2 mins in presence of NaHCO3 by fluorimetric analysis
# [10] = Antioxidant activity assessed as inhibition of peroxyl radical-induced oxidation of fluorescein measured as trolox equivalent by ORAC assay
SMILES,inhibition (INH) [1],IC50 [2],inhibition (INH) [2],IC50 [3],IC50 [4],IC50 [5],IC50 [6],IC50 [7],inhibition (INH) [8],inhibition (INH) [9],Activity [10]
O=c1c(O)c(-c2ccc(O)c(O)c2)oc2c(O)c(O)ccc12,Not Active,4.2 µM,Dose-dependent effect,0.93 µM,19 µM,2.4 µM,0.91 µM,0.12 µM,,,
COc1ccc2c(=O)c(O)c(/C=C/c3ccc(O)c(O)c3)oc2c1OC,Not Active,1.2 µM,Dose-dependent effect,1.3 µM,,0.82 µM,0.57 µM,0.83 µM,49%,,
COc1ccc(-c2oc3c(O)c(O)ccc3c(=O)c2O)cc1OC,Not Active,2.4 µM,Dose-dependent effect,2.5 µM,21 µM,6.3 µM,0.71 µM,0.055 µM,,,
COc1ccc(/C=C/c2oc3c(O)c(O)ccc3c(=O)c2O)cc1OC,Not Active,1 µM,Dose-dependent effect,,35 µM,0.91 µM,0.57 µM,1 µM,,Not Active,
COc1ccc2c(=O)c(O)c(-c3ccc(O)c(O)c3)oc2c1OC,Not Active,1.3 µM,Dose-dependent effect,1.03 µM,58 µM,3.3 µM,0.59 µM,0.058 µM,,,
O=c1c(O)c(-c2ccc(O)c(O)c2)oc2cc(O)cc(O)c12 [QUERCETIN],Not Active,,,1.1 µM,67 µM,0.8 µM,0.76 µM,,,,0.49 uMequiv/uM
O=c1c(O)c(/C=C/c2ccc(O)c(O)c2)oc2c(O)c(O)ccc12,Not Active,1 µM,Dose-dependent effect,0.98 µM,30 µM,1.42 µM,0.29 µM,0.67 µM,,,
